# Reference: the supplement of paper PMC11962398
# Experiments:
# BI-2493 [1] = compound: T1, C[C@H]1CNCCN1c1nccc(-c2noc3c2CCC[C@@]32CCCc3sc(N)c(C#N)c32)n1 [BI-2493]; test: 1 - AUC of viability dose-response curve (sensitivity) (fraction); higher = more sensitive; conditions: 5 days
# Description: (§1)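 PRISM pooled barcoded cancer cell line viability screen (Broad Institute) with BI-2493 at 8 doses in threefold dilutions from 0.00457 to 10 µmol/L, 5-day treatment; curves fitted per cell line. IC50 is undefined (placeholder) for resistant lines. AUC is capped at 1, and sensitivity is reported as 1 − AUC.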
# BI-2493 [2] = compound: T1, BI-2493; conditions: 5 days
# Description: as §1
Test System,1 - AUC of viability dose-response curve (BI-2493 [1]),IC50 of cell viability (BI-2493 [2])
HEC1B_ENDOMETRIUM,0.175,3.94 µM
NCIH647_LUNG,0.171,5.65 µM
RH36_SOFT_TISSUE,0.119,6.76 µM
UBLC1_URINARY_TRACT,0.137,4.3 µM
OZ_BILIARY_TRACT,0.0583,6.81 µM
DOTC24510_CERVIX,0.0765,6.38 µM
SW954_CERVIX,0.117,3.72 µM
PACADD119_PANCREAS,0.169,4.59 µM
OCIP5X_OVARY,0.00791,9.58 µM
KMH2_HAEMATOPOIETIC_AND_LYMPHOID_TISSUE,0.00616,9.96 µM
SW948_LARGE_INTESTINE,0.167,7.49 µM
TE5_OESOPHAGUS,0.0423,9.08 µM
OACM51_OESOPHAGUS,0.0865,6.83 µM
T24_URINARY_TRACT,0.047,> 10 µM
NCIH2077_LUNG,0.182,8.95 µM
MOLM14_HAEMATOPOIETIC_AND_LYMPHOID_TISSUE,0.145,2.79 µM
SH4_SKIN,0.0518,6.75 µM
KYSE520_OESOPHAGUS,0.136,4.02 µM
NCIH1694_LUNG,0.00415,> 10 µM
HEL9217_HAEMATOPOIETIC_AND_LYMPHOID_TISSUE,0.173,4.27 µM
RVH421_SKIN,0.133,5.43 µM
SKNFI_AUTONOMIC_GANGLIA,0.112,5.39 µM
HS294T_SKIN,0.0895,5.34 µM
HCC44_LUNG,0.257,1.66 µM
FTC133_THYROID,0.0578,> 10 µM

Test System,1 - AUC of viability dose-response curve (BI-2493 [1]),IC50 of cell viability (BI-2493 [2])
SNU1066_UPPER_AERODIGESTIVE_TRACT,0.0923,6.03 µM
SW1463_LARGE_INTESTINE,0.177,4.74 µM
OVCAR8_OVARY,0.00937,9.61 µM
BICR18_UPPER_AERODIGESTIVE_TRACT,0.147,4.16 µM
UPCISCC116_UPPER_AERODIGESTIVE_TRACT,0.118,5.74 µM
UACC62_SKIN,0.0436,9.21 µM
OVKATE_OVARY,0.086,4.22 µM
HEC59_ENDOMETRIUM,0.025,9.3 µM
SKMEL2_SKIN,0.0065,9.59 µM
SNU638_STOMACH,0.119,8.32 µM
LOUNH91_LUNG,0.189,> 10 µM
NB4_HAEMATOPOIETIC_AND_LYMPHOID_TISSUE,0.175,2.53 µM
MHHES1_BONE,0.114,8.05 µM
KYM1_SOFT_TISSUE,0.117,3.79 µM
NP2_CENTRAL_NERVOUS_SYSTEM,0.085,9.05 µM
MOLT3_HAEMATOPOIETIC_AND_LYMPHOID_TISSUE,0.0789,6.51 µM
ICC4_BILIARY_TRACT,0.184,3.75 µM
JR_SOFT_TISSUE,0.275,1.44 µM
NCIH2110_LUNG,0.0708,6.61 µM
PANC0813_PANCREAS,0.27,7.44 µM
OCIAML2_HAEMATOPOIETIC_AND_LYMPHOID_TISSUE,0.209,3 µM
SKM1_HAEMATOPOIETIC_AND_LYMPHOID_TISSUE,0.446,0.316 µM
COLO741_SKIN,0.00696,9.66 µM
SNU1076_UPPER_AERODIGESTIVE_TRACT,0.104,3.84 µM
HEC265_ENDOMETRIUM,0.109,3.76 µM

Test System,1 - AUC of viability dose-response curve (BI-2493 [1]),IC50 of cell viability (BI-2493 [2])
CW2_LARGE_INTESTINE,0.071,8.55 µM
HS944T_SKIN,0.103,3.82 µM
RKO_LARGE_INTESTINE,0.0968,7.43 µM
SHMAC5_PROSTATE,0.118,3.3 µM
PANC0403_PANCREAS,0.379,0.501 µM
CMLT1_HAEMATOPOIETIC_AND_LYMPHOID_TISSUE,0.129,4.55 µM
SKMES1_LUNG,0.0245,8.98 µM
BECKER_CENTRAL_NERVOUS_SYSTEM,0.00973,9.55 µM
TCCSUP_URINARY_TRACT,0.0247,9.48 µM
HGC27_STOMACH,0.158,3.92 µM
UMUC1_URINARY_TRACT,0.226,2.29 µM
KE39_STOMACH,0.351,1.55 µM
HS766T_PANCREAS,0.108,6.84 µM
SW756_CERVIX,0.14,5.46 µM
HUH7_LIVER,0.0355,8.94 µM
IHH4_THYROID,0.0625,7.16 µM
UMRC7_KIDNEY,0.0724,6.09 µM
BHT101_THYROID,0.0404,7.97 µM
NCIH2023_LUNG,0.208,2.57 µM
EOL1_HAEMATOPOIETIC_AND_LYMPHOID_TISSUE,0.355,0.77 µM
PANC0327_PANCREAS,0.138,7.84 µM
MOLT16_HAEMATOPOIETIC_AND_LYMPHOID_TISSUE,0.297,1.81 µM
A253_SALIVARY_GLAND,0.197,4.12 µM
EM2_HAEMATOPOIETIC_AND_LYMPHOID_TISSUE,0.207,4.85 µM
